According to patent US9863934B2, “Screening methods for cognitive enhancers” (Dart Neuroscience (Cayman) Ltd., priority 2002, dated 2018):
Entries after “also recorded” stand apart in the source; their conditions may differ.

Assays:
normal mice = assay: memory formation in normal mice after weak or strong training (% Freezing, FIG. 1); format: in vivo
Excerpt: FIG. 1 is a bar graph showing the results of drug-induced (partial) enhancement of memory in normal mice by rolipram, a prototypical phosphodiesterase (PDE) inhibitor. Five-day retention after weak training (2×) is lower than strong training (5×). Only memory after weak training is enhanced by bilateral hippocampal injections (1 :l) of rolipram immediately after training. Rolipram reduced the number of training sessions required to produce memory. % Freezing=% Observation time mice spent frozen/motionless.
These Active Hits were evaluated in vivo rodent models of memory formation. To do so efficiently, a new behavioral training protocol was validated, which logically was affected by upstream modulation of the CREB pathway. During initial stages of acquisition, repeated training trials lead to increased cAMP levels. At some point, cAMP levels pass a threshold, and activated PKA (catalytic subunit) is translocated to the nucleus, where it phosphorylates CREB directly or it yields a permissive state for the phosphorylation of CREB by a cofactor. In this context, phosphodiesterase (PDE) inhibitors act to increase cAMP levels beyond the threshold with fewer training trials, thereby producing more long-lasting memory with weaker training.

human CREB RNA = assay: human CREB bDNA assay; format: cell-based
Excerpt: CREB 1 and CREB 3 oligos have identical sequence homology with both mouse and human. CREB 17 has a single base mismatch.

[1] = test system: CREB mRNA in Neuro2a cells; assay: bDNA assay of CREB mRNA after transfection of CREB LNA antisense oligos (FIG. 3); format: cell-based, Mus musculus; details: higher concentration (0.5 :M)
Protocol: Detection of CREB mRNA with the bDNA Assay. Mus musculus Neuro2a cells were obtained from American Type Culture Collection (ATCC, Cat. No. CCL-131; Manassas, Va.). Cells were plated in Modified Eagle's Minimum Essential Media (Minimum essential medium (Eagle) with 2 mM L-glutamine and Earle's BSS adjusted to contain 1.5 g/L sodium bicarbonate, 0.1 mM non-essential amino acids, and 1.0 mM sodium pyruvate, 90%; fetal bovine serum, […]) in a 96-microwell format at 2×10^4 cells per well. Cells were maintained at 37 C. and 5% CO2 overnight before transfecting with CREB Locked Nucleic Acid (LNA) oligonucleotides.
Cells were transfected using Lipofectamine 2000 (hivitrogen, Carlsbad, Calif.) with modifications to the manufacturer's protocol. […]
The direct quantitation of CREB messenger RNA (mRNA) following transfection of antisense oligos, was detected using the QuantiGene Expression Kit according to the manufacturer's protocol (Bayer Corporation; Tarrytown, N.Y.). […] The luminescence of each well was measured in a Wallac Victor2 V (Perkin Elmer) plate luminometer at 45 C. […]

Row | Compound | number of training sessions required to produce memory (normal mice) | memory (five-day retention, % Freezing) after weak training (normal mice; weak training (2×), not strong training (5×), bilateral hippocampal injections (1 :l) immediately after training) | knocking down human CREB RNA levels (human CREB RNA) | effect on endogenous CREB RNA levels [1]
1 | COc1ccc(C2CNC(=O)C2)cc1OC1CCCC1 (stereo not drawn) [rolipram] | reduced | effect was established as predicted; also recorded: enhanced |  | 
2 | CCTCCgCCgCgTCACTCA (LNA modifications, as printed in the source, key not given here) [CREB1, CREB Locked Nucleic Acid (LNA) antisense oligonucleotide] |  |  | factional in knocking down human CREB RNA levels | 
3 | TggCACTgTTACAgTggT (LNA modifications, as printed in the source, key not given here) [CREB17, CREB LNA antisense oligonucleotide; single base mismatch to human] |  |  | factional in knocking down human CREB RNA levels | 
4 | TggTCATTTAgTTACCggTg (as printed in the source, key not given here) [CREB3] |  |  | factional in knocking down human CREB RNA levels | reduces endogenous CREB RNA levels
